Assay results: ChEMBL document CHEMBL3885881, “DrugMatrix”

Species: Rattus norvegicus
Assay: DrugMatrix - Regimen: Daily Repeat
Assay type: toxicity, organism-based, Sprague-Dawley
Design: regimen Daily Repeat, gender Male, age 6-8 weeks
Conditions: in vivo, po, route oral GAVAGE, dose level High, vehicle 100 % WATER; for BASOPHIL / EOSINOPHIL / ERYTHROCYTE COUNT / HEMATOCRIT / HEMOGLOBIN / LEUKOCYTE COUNT / LYMPHOCYTE / MEAN CORPUSCULAR HEMOGLOBIN / MEAN CORPUSCULAR HEMOGLOBIN CONCENTRATION / MEAN CORPUSCULAR VOLUME / MONOCYTE / NEUTROPHIL / PLATELET COUNT / ABSOLUTE BASOPHIL / ABSOLUTE EOSINOPHIL / ABSOLUTE LYMPHOCYTE / ABSOLUTE MONOCYTE: tissue Blood; for ALANINE AMINOTRANSFERASE / ALBUMIN / ALKALINE PHOSPHATASE / ASPARTATE AMINOTRANSFERASE / BLOOD UREA NITROGEN / CARBON DIOXIDE / CHLORIDE / CHOLESTEROL / CREATINE PHOSPHOKINASE / CREATININE / GLUCOSE / LACTATE DEHYDROGENASE / LIPASE / PHOSPHORUS / POTASSIUM / SODIUM / TOTAL BILIRUBIN / TOTAL PROTEIN / URIC ACID: tissue Plasma

## COCCc1ccc(OCC(O)CNC(C)C)cc1 (configuration not stated) [METOPROLOL]
120 mg/kg, 120 h, time 5 day
  BASOPHIL: 0.67%
  EOSINOPHIL: 4.2%
  ERYTHROCYTE COUNT: 7.04 x10E6/uL
  HEMATOCRIT: 45.37%
  HEMOGLOBIN: 14.97 G/DL
  LEUKOCYTE COUNT: 9.83 x10E3/uL
  LYMPHOCYTE: 70.57%
  MEAN CORPUSCULAR HEMOGLOBIN: 21.3 pg
  MEAN CORPUSCULAR HEMOGLOBIN CONCENTRATION: 33 G/DL
  MEAN CORPUSCULAR VOLUME: 64.57 fL
  MONOCYTE: 2.6%
  NEUTROPHIL: 21.47%
  PLATELET COUNT: 1018.67 x10E3/uL
  ALANINE AMINOTRANSFERASE: 28.67 u/L
  ALBUMIN: 3.9 G/DL
  ALKALINE PHOSPHATASE: 427.33 u/L
  ASPARTATE AMINOTRANSFERASE: 68.67 u/L
  BLOOD UREA NITROGEN: 16.33 mg/dL
  CARBON DIOXIDE: 38.33 mmol/L
  CHLORIDE: 106.67 MEQ/L
  CHOLESTEROL: 62.33 mg/dL
  CREATINE PHOSPHOKINASE: 168 u/L
  CREATININE: 0.4 mg/dL
  GLUCOSE: 168 mg/dL
  LACTATE DEHYDROGENASE: 97 u/L
  LIPASE: 14 u/L
  PHOSPHORUS: 11.37 mg/dL
  POTASSIUM: 6.67 MEQ/L
  SODIUM: 147.67 MEQ/L
  TOTAL BILIRUBIN: 0.47 mg/dL
  TOTAL PROTEIN: 6.33 G/DL
  URIC ACID: 1.27 mg/dL
120 mg/kg, […], time 14 day
  ABSOLUTE BASOPHIL: 90 cells/µL
  ABSOLUTE EOSINOPHIL: 60 cells/µL
  ABSOLUTE LYMPHOCYTE: 10900 cells/µL
  ABSOLUTE MONOCYTE: 270 cells/µL
  BASOPHIL: 0.67%
  EOSINOPHIL: 0.43%
  ERYTHROCYTE COUNT: 6.79 x10E6/uL
  HEMATOCRIT: 41.53%
  HEMOGLOBIN: 14.17 G/DL
  LEUKOCYTE COUNT: 13.77 x10E3/uL
  LYMPHOCYTE: 78.87%
  MEAN CORPUSCULAR HEMOGLOBIN: 20.87 pg
  MEAN CORPUSCULAR HEMOGLOBIN CONCENTRATION: 34.13 G/DL
  MEAN CORPUSCULAR VOLUME: 61.17 fL
  MONOCYTE: 1.33%
  NEUTROPHIL: 17.47%
  PLATELET COUNT: 1228.67 x10E3/uL
  ALANINE AMINOTRANSFERASE: 37 u/L
  ALBUMIN: 3.63 G/DL
  ALKALINE PHOSPHATASE: 379.33 u/L
  ASPARTATE AMINOTRANSFERASE: 68.67 u/L
  BLOOD UREA NITROGEN: 17.67 mg/dL
  CARBON DIOXIDE: 40.67 mmol/L
  CHLORIDE: 107.33 MEQ/L
  CHOLESTEROL: 51 mg/dL
  CREATINE PHOSPHOKINASE: 304.67 u/L
  CREATININE: 0.37 mg/dL
  GLUCOSE: 183.33 mg/dL
  LACTATE DEHYDROGENASE: 123.33 u/L
  LIPASE: 10.67 u/L
  PHOSPHORUS: 9.23 mg/dL
  POTASSIUM: 6.17 MEQ/L
  SODIUM: 144 MEQ/L
  TOTAL BILIRUBIN: 0.4 mg/dL
  TOTAL PROTEIN: 5.9 G/DL
  URIC ACID: 0.17 mg/dL
1200 mg/kg, 72 h, time 3 day
  ABSOLUTE BASOPHIL: 0 CELLS/uL
  ABSOLUTE EOSINOPHIL: 286.33 CELLS/uL
  ABSOLUTE LYMPHOCYTE: 11270.67 CELLS/uL
  ABSOLUTE MONOCYTE: 0 CELLS/uL
